Laboratory results reported in ChEMBL document CHEMBL4706671, “A High-Affinity Peptide Ligand Targeting Syntenin Inhibits Glioblastoma” (J Med Chem, 2021).
Activity calls are given as the source filed them. No cut-off for these calls is given here. Non-standard residues stand in square brackets, D forms with d. Residues, ends and D or L forms follow the SMILES beside them. *: point of attachment. X1 = CN(C)c1ccc2c(-c3cc(C(=O)*)ccc3C(=O)[O-])c3ccc(=[N+](C)C)cc-3oc2c1; Biotin = O=C1N[C@H]2[C@H](CS[C@H]2CCCCC(=O)*)N1; Chg = N[C@H](C(=O)O)C1CCCCC1; Tle = CC(C)(C)[C@H](N)C(=O)O; AEEA = NCCOCCOCC(=O)O

Assays:
Syntenin-1 [1] = target: T1, Syntenin-1 (Homo sapiens, UniProt O00560); test: (§1) Inhibition of syntenin-PDZ1-2 domain (unknown origin) expressed in Escherichia coli BL21 (DE3) incubated for 5 mins by fluorescence polarization assay
T1 sequence (O00560 whole entry): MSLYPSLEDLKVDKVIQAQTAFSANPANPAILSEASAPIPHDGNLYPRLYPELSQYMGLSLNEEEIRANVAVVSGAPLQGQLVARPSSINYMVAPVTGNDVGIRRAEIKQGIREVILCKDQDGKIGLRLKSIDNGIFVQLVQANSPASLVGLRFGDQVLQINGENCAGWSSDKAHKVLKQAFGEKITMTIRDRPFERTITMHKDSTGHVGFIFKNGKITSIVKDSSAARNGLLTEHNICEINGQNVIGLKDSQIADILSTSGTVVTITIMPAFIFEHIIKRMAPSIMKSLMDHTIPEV

[2] = target: T2, Syntenin-1 (Homo sapiens) (UniProt O00560); test: Inhibition of mCherry-labeled-syntenin expressed in human MCF7 cells co-expressing […] Q79L mutant assessed as reduction in syntenin-dependent intracellular endosomal budding at 0.1 to 10 uM incubated for 24 hrs; assay type: cell-based; settings: dose 0.1-10 µM
T2 sequence (whole entry): T1 sequence (O00560 whole entry)

[3] = Stability in mouse hepatic microsomes assessed as half life for compound degradation at […] in presence of NADPH by UPLC analysis; assay type: ADME, Microsome; settings: liver microsomes
Homo sapiens = species: Homo sapiens; test: Selectivity index, ratio of Kd for binding affinity to syntenin2-PDZ1-2 domain (unknown origin) expressed in Escherichia coli BL21 (DE3) by SPR analysis to Kd for binding affinity to syntenin-PDZ1-2 domain (unknown origin) expressed in Escherichia coli BL21 (DE3) by SPR analysis
[4] = target: T2, Syntenin-1 (Homo sapiens); test: Binding affinity to syntenin-PDZ1-2 domain (unknown origin) expressed in Escherichia coli BL21 (DE3) assessed as apparent association rate constant by SPR analysis
[5] = target: T2, Syntenin-1 (Homo sapiens); test: Binding affinity to human syntenin-PDZ1 domain assessed as binding intensity by HTS holdup assay
[6] = target: T2, Syntenin-1 (Homo sapiens); test: Binding affinity to syntenin-PDZ1-2 domain (unknown origin) expressed in Escherichia coli BL21 (DE3) assessed as apparent dissociation rate constant by SPR analysis
Syntenin-1 [7] = target: T1, Syntenin-1; test: Binding affinity to syntenin-PDZ1-2 domain (unknown origin) expressed in Escherichia coli BL21 (DE3) by SPR analysis
[8] = target: T2, Syntenin-1 (Homo sapiens); test: Binding affinity to human syntenin-PDZ2 domain assessed as binding intensity by HTS holdup assay
GBM [9] = test: Antineoplastic activity against human patient-derived GBM002 cells assessed as reduction in cell viability incubated for 72 hrs by Cell-titer-Glo luminescent cell viability assay; assay type: functional, cell-based
GBM [10] = test: Antineoplastic activity against human patient-derived GBM cells xenografted in NMRInu-F receiving GBM cells pre-treated with 50 uM compound for 24 hrs assessed as median survival time (reference value: 25 days); assay type: functional
HT-29 = test: Antineoplastic activity against human HT-29 cells assessed as reduction in cell viability at 10 to 30 uM incubated for 72 hrs by Cell-titer-Glo luminescent cell viability assay; assay type: functional, cell-based; settings: dose 10-30 µM
HEK293 = test: Cytotoxic activity against HEK293 cells assessed as reduction in cell viability at 12.5 to 50 uM incubated for 24 hrs by Cell-titer-Glo luminescent cell viability assay; assay type: cell-based; settings: human, hek293, 24 h, dose 12.5-50 µM
Astrocyte = test: Cytotoxic activity against normal human astrocytes assessed as reduction in cell viability at 20 to 30 uM incubated for 24 hrs by Cell-titer-Glo luminescent cell viability assay; assay type: cell-based; settings: dose 20-30 µM
GBM [11] = test: Antineoplastic activity against human patient-derived GBM001 cells assessed as reduction in cell viability incubated for 72 hrs by Cell-titer-Glo luminescent cell viability assay; assay type: functional, cell-based
[12] = target: T2, Syntenin-1 (Homo sapiens); test: as §1
MCF7 = test: Antineoplastic activity against human MCF7 cells assessed as reduction in cell viability at 10 to 30 uM incubated for 72 hrs by Cell-titer-Glo luminescent cell viability assay; assay type: functional, cell-based; settings: dose 10-30 µM
A2058 = test: Antineoplastic activity against human A2058 cells assessed as reduction in cell viability incubated for 72 hrs by Cell-titer-Glo luminescent cell viability assay; assay type: functional, cell-based
[13] = Drug distribution in cytoplasm of human patient-derived GBM002 cells at 10 to 30 uM incubated for 2 to 24 hrs hrs by confocal microscopy; assay type: ADME, subcellular; settings: gbm, dose lower 10 µM, time lower 2 hrs, dose upper 30 µM, time upper 24 hrs
[14] = Stability in human plasma assessed as half life for compound degradation at 0.2 mM by UPLC analysis; assay type: ADME, cell-free

Compound: H-KDKEYYV-OH
- Ki (Syntenin-1 [1]): 110000 nM

Compound: CC[C@H](C)[C@H](NC(=O)[C@H](Cc1cnc[nH]1)NC(=O)[C@@H](NC(=O)[C@@H](NC(=O)[C@@H](N)CC(=O)O)C1CCCCC1)C(C)(C)C)C(=O)N[C@@H](Cc1c[nH]c2ccccc12)C(=O)N[C@@H](CO)C(=O)O (H-D[Chg][Tle]HIWS-OH)
- Ki (Syntenin-1 [1]): > 500000 nM

Compound: H-TTNEFYA-OH
- Ki (Syntenin-1 [1]): 2000 nM

Compound: CC[C@H](C)[C@@H](NC(=O)[C@H](CC(=O)O)NC(=O)[C@@H](NC(=O)[C@@H](NC(=O)[C@H](Cc1c[nH]c2ccccc12)NC(=O)[C@H](Cc1cnc[nH]1)NC(=O)[C@H](CO)NC(=O)[C@H](CCCNC(=N)N)NC(=O)[C@H](CCCNC(=N)N)NC(=O)[C@H](CCCNC(=N)N)NC(=O)[C@H](CCC(N)=O)NC(=O)[C@H](CCCNC(=N)N)NC(=O)[C@H](CCCNC(=N)N)NC(=O)[C@H](CCCCN)NC(=O)[C@H](CCCCN)NC(=O)[C@H](CCCNC(=N)N)NC(=O)CNC(=O)[C@H](Cc1ccc(O)cc1)NC(C)=O)C(C)(C)C)C1CCCCC1)C(=O)O
- inhibition [2]: Dose-dependent effect
- Ki (Syntenin-1 [1]): 250 nM

Compound: CC[C@H](C)[C@H](NC(=O)[C@H](CC(=O)O)NC(=O)[C@@H](NC(=O)[C@@H](NC(=O)[C@H](Cc1c[nH]c2ccccc12)NC(=O)[C@H](Cc1c[nH]cn1)NC(=O)[C@H](CO)NC(=O)[C@H](CCCNC(=N)N)NC(=O)[C@H](CCCNC(=N)N)NC(=O)[C@H](CCCNC(=N)N)NC(=O)[C@H](CCC(N)=O)NC(=O)[C@H](CCCNC(=N)N)NC(=O)[C@H](CCCNC(=N)N)NC(=O)[C@H](CCCCN)NC(=O)[C@H](CCCCN)NC(=O)[C@H](CCCNC(=N)N)NC(=O)CNC(=O)[C@H](Cc1ccc(O)cc1)NC(C)=O)C(C)(C)C)C1CCCCC1)C(=O)O
- half-life [3]: > 1 h

Compound: CC[C@H](C)[C@H](NC(=O)[C@H](CC(=O)O)NC(=O)[C@@H](NC(=O)[C@@H](NC(=O)[C@H](Cc1c[nH]c2ccccc12)NC(=O)[C@H](Cc1cnc[nH]1)NC(=O)[C@H](CO)NC(=O)COCCOCCNC(=O)CCCC[C@@H]1SC[C@@H]2NC(=O)N[C@@H]21)C(C)(C)C)C1CCCCC1)C(=O)O ({Biotin-AEEA}-SHW[Tle][Chg]DI-OH)
- Ratio (Homo sapiens): 440
- K [4]: 3.1 10^5/M/s
- Flu intensity [5]: 0.96
- K [6]: 0.05 s⁻¹
- Ki (Syntenin-1 [7]): 170 nM
- Activity [8]: inactive
- Ki (Syntenin-1 [1]): 190 nM

Compound: CC[C@H](C)[C@H](NC(=O)[C@H](CC(=O)O)NC(=O)CNC(=O)[C@H](Cc1cnc[nH]1)NC(=O)[C@H](CS)NC(=O)[C@H](CCC(=O)O)NC(=O)[C@H](CC(C)C)NC(=O)[C@@H](NC(=O)[C@H](Cc1c[nH]c2ccccc12)NC(=O)[C@H](Cc1cnc[nH]1)NC(=O)[C@H](CO)NC(=O)[C@H](CCCNC(=N)N)NC(=O)[C@H](CCCNC(=N)N)NC(=O)[C@H](CCCCN)NC(=O)[C@H](CCCCN)NC(=O)[C@H](CCCNC(=N)N)NC(=O)CNC(=O)[C@H](CCCNC(=N)N)NC(=O)[C@H](CCCNC(=N)N)NC(=O)[C@H](CCCNC(=N)N)NC(=O)[C@H](CS)NC(=O)[C@H](C)N)[C@@H](C)O)C(=O)O (H-ACRRRGRKKRRSHWTLECHGDI-OH)
- Activity (GBM [9]): Dose-dependent effect
- inhibition [2]: Dose-dependent effect
- MST (GBM [10]): 45.5 days
- Activity (HT-29): inactive
- Activity (HEK293): Toxic
- half-life [3]: > 1 h
- Activity (Astrocyte): Toxic
- Activity (GBM [11]): Dose-dependent effect
- inhibition [12]: Active
- Activity (MCF7): inactive
- Activity (A2058): Dose-dependent effect
- Drug uptake [13]: Dose-dependent effect and Tde

Compound: H-TLEDSVF-OH
- Ki (Syntenin-1 [1]): 44000 nM

Compound: CC[C@H](C)[C@H](NC(=O)[C@H](CC(=O)O)NC(=O)[C@@H](NC(=O)[C@@H](NC(=O)[C@H](Cc1c[nH]c2ccccc12)NC(=O)[C@H](Cc1cnc[nH]1)NC(=O)[C@H](CO)NC(=O)CNC(=O)[C@H](CC(N)=O)NC(=O)[C@H](CC(N)=O)NC(=O)c1ccc(C(=O)[O-])c(-c2c3ccc(=[N+](C)C)cc-3oc3cc(N(C)C)ccc23)c1)C(C)(C)C)C1CCCCC1)C(=O)O (X1-NNGSHW[Tle][Chg]DI-OH)
- Ki (Syntenin-1 [1]): 30 nM

Compound: CC(C)NCC(O)COc1cccc2ccccc12 (stereo not drawn) [PROPRANOLOL]
- half-life [3]: 0.583 h

Compound: CC[C@H](C)[C@@H](NC(=O)[C@H](CC(=O)O)NC(=O)[C@@H](NC(=O)[C@@H](NC(=O)[C@H](Cc1c[nH]c2ccccc12)NC(=O)[C@H](Cc1cnc[nH]1)NC(=O)[C@H](CO)NC(=O)[C@H](CCCNC(=N)N)NC(=O)[C@H](CCCNC(=N)N)NC(=O)[C@H](CCCNC(=N)N)NC(=O)[C@H](CCCNC(=N)N)NC(=O)[C@H](CCCNC(=N)N)NC(=O)[C@H](CCCNC(=N)N)NC(=O)[C@H](CCCNC(=N)N)NC(=O)[C@H](CCCNC(=N)N)NC(=O)[C@H](CCCNC(=N)N)NC(C)=O)C(C)(C)C)C1CCCCC1)C(=O)O
- inhibition [2]: Dose-dependent effect
- Ki (Syntenin-1 [1]): 250 nM

Compound: H-RSGYEVM-OH
- Ki (Syntenin-1 [1]): 24000 nM

Compound: CC[C@H](C)[C@@H](NC(=O)[C@H](CC(=O)O)NC(=O)[C@@H](NC(=O)[C@@H](NC(=O)[C@H](Cc1c[nH]c2ccccc12)NC(=O)[C@H](Cc1cnc[nH]1)NC(=O)[C@H](CO)NC(=O)[C@@H]1CCC(=O)NCCCC[C@H](NC(C)=O)C(=O)N[C@H](CCCNC(=N)N)C(=O)N[C@@H](CCCNC(=N)N)C(=O)N[C@H](CCCNC(=N)N)C(=O)NCC(=O)N[C@H](CCCNC(=N)N)C(=O)N[C@@H](CCCCN)C(=O)N[C@H](CCCCN)C(=O)N[C@@H](CCCNC(=N)N)C(=O)N[C@H](CCCNC(=N)N)C(=O)N1)C(C)(C)C)C1CCCCC1)C(=O)O
- inhibition [2]: Dose-dependent effect
- Activity (HT-29): inactive
- half-life at 200 µM [14]: > 24 h
- half-life [3]: > 1 h
- Ki (Syntenin-1 [1]): 250 nM
- Activity (MCF7): inactive
- Activity (A2058): Dose-dependent effect

Compound: H-NAIYSLA-OH
- Ki (Syntenin-1 [1]): 100000 nM

Compound: H-SHWTIDI-OH
- half-life at 200 µM [14]: 0.142 h
- half-life [3]: > 1 h
- Ki (Syntenin-1 [1]): 2000 nM

Compound: H-SKGETAV-OH
- Ki (Syntenin-1 [1]): 10000 nM
